Experimental data from patent US8629173B2, “Solid forms comprising (+)-2-[1-(3-ethoxy-4-methoxyphenyl)-2-methylsulfonylethyl]-4-acetylaminoisoindoline-1,3-dione, compositions thereof, and uses thereof” (Celgene Corporation, priority 2002, dated 2014).
Converted amounts (≈) assume the structure as drawn.

What was measured:
[1] = test system: bovine PDE1; assay: PDE1 enzyme assay; assay type: biochemical
[2] = molecular target: PDE3 from human platelets (Homo sapiens, UniProt Q14432); assay: PDE3 enzyme assay; assay type: biochemical
Chain of PDE3 from human platelets (Q14432 whole entry): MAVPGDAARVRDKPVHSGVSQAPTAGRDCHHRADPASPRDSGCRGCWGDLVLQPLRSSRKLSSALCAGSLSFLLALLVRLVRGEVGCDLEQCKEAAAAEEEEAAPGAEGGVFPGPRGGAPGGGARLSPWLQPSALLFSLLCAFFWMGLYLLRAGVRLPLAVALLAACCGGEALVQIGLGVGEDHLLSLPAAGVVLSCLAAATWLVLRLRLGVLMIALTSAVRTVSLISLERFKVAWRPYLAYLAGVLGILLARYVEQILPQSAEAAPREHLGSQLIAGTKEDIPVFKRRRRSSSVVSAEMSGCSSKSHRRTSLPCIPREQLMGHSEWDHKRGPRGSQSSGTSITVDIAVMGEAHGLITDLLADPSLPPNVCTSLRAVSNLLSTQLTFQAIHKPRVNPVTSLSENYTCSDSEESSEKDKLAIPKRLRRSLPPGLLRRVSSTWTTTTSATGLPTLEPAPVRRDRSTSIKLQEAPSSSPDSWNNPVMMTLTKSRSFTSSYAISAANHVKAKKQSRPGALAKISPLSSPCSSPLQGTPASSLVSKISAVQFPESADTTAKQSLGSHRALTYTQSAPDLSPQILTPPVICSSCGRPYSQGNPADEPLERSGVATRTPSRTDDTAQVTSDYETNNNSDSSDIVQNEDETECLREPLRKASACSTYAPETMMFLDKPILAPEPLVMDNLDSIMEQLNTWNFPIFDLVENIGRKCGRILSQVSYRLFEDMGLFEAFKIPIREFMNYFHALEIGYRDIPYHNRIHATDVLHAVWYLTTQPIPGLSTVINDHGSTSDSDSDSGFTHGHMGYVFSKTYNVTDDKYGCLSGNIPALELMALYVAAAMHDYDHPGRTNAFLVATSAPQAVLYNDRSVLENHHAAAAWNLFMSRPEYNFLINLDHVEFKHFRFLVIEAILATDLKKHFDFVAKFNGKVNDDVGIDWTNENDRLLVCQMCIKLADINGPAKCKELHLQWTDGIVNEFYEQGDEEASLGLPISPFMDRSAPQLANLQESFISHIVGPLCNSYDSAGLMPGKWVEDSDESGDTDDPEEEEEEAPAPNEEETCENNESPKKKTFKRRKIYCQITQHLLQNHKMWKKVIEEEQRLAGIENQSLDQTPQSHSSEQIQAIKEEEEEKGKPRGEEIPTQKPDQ

[3] = molecular target: T1, PDE6 from bovine retinal rod outer segments (Bos taurus, UniProt P11541+P23439); assay: PDE6 enzyme assay; assay type: biochemical
T1 construct: PDE6 from bovine retinal rod outer segments; from tissue; host or cells: bovine retinal rod outer segments
T1 sequence (P11541 2-856 limits assumed): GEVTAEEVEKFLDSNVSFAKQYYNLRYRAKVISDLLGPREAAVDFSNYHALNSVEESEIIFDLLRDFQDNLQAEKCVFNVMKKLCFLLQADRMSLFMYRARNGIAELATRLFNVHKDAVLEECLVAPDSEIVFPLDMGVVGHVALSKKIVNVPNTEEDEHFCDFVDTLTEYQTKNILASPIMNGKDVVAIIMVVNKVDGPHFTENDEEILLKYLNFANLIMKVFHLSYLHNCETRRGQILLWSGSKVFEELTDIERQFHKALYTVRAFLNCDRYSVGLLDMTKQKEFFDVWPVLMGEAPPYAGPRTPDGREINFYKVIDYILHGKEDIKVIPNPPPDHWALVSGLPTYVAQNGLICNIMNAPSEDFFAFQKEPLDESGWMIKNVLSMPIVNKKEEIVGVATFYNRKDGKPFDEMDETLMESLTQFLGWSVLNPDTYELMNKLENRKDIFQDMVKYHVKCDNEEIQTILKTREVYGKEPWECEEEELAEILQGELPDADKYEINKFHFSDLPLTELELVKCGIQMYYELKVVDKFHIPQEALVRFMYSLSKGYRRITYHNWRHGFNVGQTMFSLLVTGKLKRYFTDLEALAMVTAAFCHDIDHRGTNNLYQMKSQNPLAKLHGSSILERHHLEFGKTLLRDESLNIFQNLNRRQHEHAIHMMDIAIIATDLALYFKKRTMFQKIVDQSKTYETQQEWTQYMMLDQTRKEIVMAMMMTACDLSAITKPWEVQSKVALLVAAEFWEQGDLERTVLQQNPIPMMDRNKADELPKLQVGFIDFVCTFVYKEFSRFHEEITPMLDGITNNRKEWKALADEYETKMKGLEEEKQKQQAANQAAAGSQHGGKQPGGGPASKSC
T1 sequence (P23439 2-850 limits assumed): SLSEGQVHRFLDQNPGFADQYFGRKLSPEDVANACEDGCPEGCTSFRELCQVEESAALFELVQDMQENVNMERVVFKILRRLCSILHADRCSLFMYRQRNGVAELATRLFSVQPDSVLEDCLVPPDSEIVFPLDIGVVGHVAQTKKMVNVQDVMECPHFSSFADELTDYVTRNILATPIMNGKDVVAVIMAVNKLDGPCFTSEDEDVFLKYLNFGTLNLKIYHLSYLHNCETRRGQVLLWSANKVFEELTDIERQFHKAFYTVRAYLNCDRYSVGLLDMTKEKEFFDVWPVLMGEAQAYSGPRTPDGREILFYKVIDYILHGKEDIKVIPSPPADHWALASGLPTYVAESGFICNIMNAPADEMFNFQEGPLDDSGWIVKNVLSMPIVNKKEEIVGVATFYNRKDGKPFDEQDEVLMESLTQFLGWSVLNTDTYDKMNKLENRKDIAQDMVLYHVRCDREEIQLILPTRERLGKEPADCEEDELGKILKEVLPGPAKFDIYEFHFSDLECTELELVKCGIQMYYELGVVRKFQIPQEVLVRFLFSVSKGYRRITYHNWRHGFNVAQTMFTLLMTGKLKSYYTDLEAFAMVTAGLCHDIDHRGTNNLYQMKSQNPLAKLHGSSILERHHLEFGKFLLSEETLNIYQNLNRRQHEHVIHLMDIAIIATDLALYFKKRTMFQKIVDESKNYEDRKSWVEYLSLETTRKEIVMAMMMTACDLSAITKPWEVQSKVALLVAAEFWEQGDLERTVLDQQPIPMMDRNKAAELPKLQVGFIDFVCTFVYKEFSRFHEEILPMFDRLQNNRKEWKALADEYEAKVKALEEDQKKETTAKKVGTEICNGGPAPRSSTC

[4] = physchem; conditions: pH 7.4, aqueous buffer, thermodynamic from solid

SMILES: CCOc1cc(C(CS(C)(=O)=O)N2C(=O)c3cccc(NC(C)=O)c3C2=O)ccc1OC (single isomer, unassigned; (+)) [Compound A, (+)-2-[1-(3-ethoxy-4-methoxyphenyl)-2-methylsulfonylethyl]-4-acetylaminoisoindoline-1,3-dione]
- PDE1 (% inhib at 10 μM) ([1]; 10 μM): 23%
- PDE Specificity Ratio PDE4/PDE1 ([1]; from Table 1 data): >500 fold
- PDE Specificity Ratio PDE4/PDE3 ([2]; from Table 1 data): >1200 fold
- inhibition at 10 µM ([2]; read-out: PDE3 (% inhib at 10 μM)): 20%
- PDE Specificity Ratio PDE4/PDE6 ([3]; from Table 1 data): >40000 fold
- inhibition at 10 µM ([3]; read-out: PDE6 (% inhib at 10 μM)): -6%
- solubility [4]: 12 µg/mL (≈ 26.1 µM)
